In ChEMBL document CHEMBL1201862, “PubChem BioAssay data set” (2004):
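All cell lines were grown in 96-well plates and treated with compound for 48 hours. Abbreviation: GI50, concentration required for 50% inhibition of growth.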 Active and inactive are the calls of the source. Rule as the data show it: active = GI50 up to about 1.1 µM and inactive = higher.

Columns and labels:
Experiment in all cases: inhibition of tumour cell growth, NCI panel, 48 h
[1] = tested on: 786-0
[2] = tested on: A549
[3] = tested on: BT-549
[4] = tested on: DU-145
[5] = tested on: HCC 2998
[6] = tested on: HCT-15
[7] = tested on: HOP-92
[8] = tested on: HT-29
[9] = tested on: MCF7
[10] = tested on: Malme-3M
[11] = tested on: NCI-H460
[12] = tested on: NCI-H522
[13] = tested on: OVCAR-4
[14] = tested on: RPMI-8226
[15] = tested on: SK-OV-3
[16] = tested on: SN12C
[17] = tested on: SNB-19
[18] = tested on: SR
[19] = tested on: UACC-62
[20] = tested on: UO-31

| SMILES | GI50 [1] | GI50 [2] | GI50 [3] | GI50 [4] | GI50 [5] | GI50 [6] [µM] | GI50 [7] | GI50 [8] | GI50 [9] | GI50 [10] | GI50 [11] | GI50 [12] | GI50 [13] | GI50 [14] | GI50 [15] | GI50 [16] | GI50 [17] | GI50 [18] | GI50 [19] | GI50 [20] |
| --- | --- | --- | --- | --- | --- | --- | --- | --- | --- | --- | --- | --- | --- | --- | --- | --- | --- | --- | --- | --- |
| CC1=CC=CC(C)(C)CC1(O[Si](C)(C)C)C(F)(F)F (stereo not given) | > 100 µM (inactive) | 64.3 µM (inactive) | > 100 µM (inactive) | > 100 µM (inactive) | > 100 µM (inactive) | > 100 | > 100 µM (inactive) | 46.8 µM (inactive) | 92.7 µM (inactive) | > 100 µM (inactive) | > 100 µM (inactive) | 43.3 µM (inactive) | > 100 µM (inactive) | > 100 µM (inactive) | > 100 µM (inactive) | > 100 µM (inactive) | > 100 µM (inactive) | > 100 µM (inactive) | > 100 µM (inactive) | > 100 µM (inactive) |
| CC(C)OP(=O)(OC(C)C)/C(C#N)=C/c1ccco1 | > 100 µM (inactive) | > 100 µM (inactive) | > 100 µM (inactive) | > 100 µM (inactive) | > 100 µM (inactive) | > 100 | > 100 µM (inactive) | > 100 µM (inactive) | > 100 µM (inactive) | > 100 µM (inactive) | > 100 µM (inactive) | > 100 µM (inactive) | > 100 µM (inactive) | > 100 µM (inactive) | > 100 µM (inactive) | > 100 µM (inactive) | > 100 µM (inactive) | > 100 µM (inactive) | > 100 µM (inactive) | 5.19 µM (inactive) |
| CC1=NN(C(=O)c2ccccc2O)C(=O)/C1=C/c1ccccc1O | 0.521 µM (active) | 0.157 µM (active) | 0.438 µM (active) | 0.132 µM (active) | 3.21 µM (inactive) | 0.292 | 1.27 µM (inactive) | 8.45 µM (inactive) | 2.68 µM (inactive) | 0.766 µM (active) | 0.209 µM (active) | 0.497 µM (active) | 1.08 µM (active) | 0.931 µM (active) | 0.0815 µM (active) | 0.579 µM (active) | 0.124 µM (active) | 0.251 µM (active) | 0.057 µM (active) | 0.0634 µM (active) |
| CN(C)CC1(Cc2ccccc2)CCC(Cc2ccccc2)C1=O (stereo not given) | 2.07 µM (inactive) | 17.3 µM (inactive) | 8.95 µM (inactive) | 14.8 µM (inactive) | 7.05 µM (inactive) | 5.21 | 17.4 µM (inactive) | 13 µM (inactive) | 5.15 µM (inactive) | 12.5 µM (inactive) | 12.2 µM (inactive) | 2.84 µM (inactive) | 16.3 µM (inactive) | 1.89 µM (inactive) | 21.8 µM (inactive) | 9.77 µM (inactive) | 16 µM (inactive) | 4.47 µM (inactive) | 16.5 µM (inactive) | 16.9 µM (inactive) |
| CSc1ccc2c(c1)c(CCN)c(C)n2Cc1ccccc1Cl | 1.72 µM (inactive) | 1.68 µM (inactive) | 3.26 µM (inactive) | 1.66 µM (inactive) | 0.74 µM (active) | 2.02 | 1.26 µM (inactive) | 1.6 µM (inactive) | 1.85 µM (inactive) | 1.69 µM (inactive) | 1.55 µM (inactive) | 1.5 µM (inactive) | 1.73 µM (inactive) | 1.42 µM (inactive) | 2 µM (inactive) | 1.58 µM (inactive) | 1.77 µM (inactive) | 2.42 µM (inactive) | 1.65 µM (inactive) | 1.52 µM (inactive) |
| Cc1cc(S(=O)(=O)N=C2N(Cc3ccccc3)CCN2Cc2ccccc2)c(S)cc1Cl | > 100 µM (inactive) | > 100 µM (inactive) | > 100 µM (inactive) | > 100 µM (inactive) | > 100 µM (inactive) | > 100 | > 100 µM (inactive) | > 100 µM (inactive) | > 100 µM (inactive) | > 100 µM (inactive) | 56.1 µM (inactive) | 40.6 µM (inactive) | > 100 µM (inactive) | > 100 µM (inactive) | > 100 µM (inactive) | > 100 µM (inactive) | > 100 µM (inactive) | 95.9 µM (inactive) | > 100 µM (inactive) | 17.7 µM (inactive) |
| Cc1cnc2nc(-c3ccc(F)cc3)cc(O)c2c1 | 32.5 µM (inactive) | 42.4 µM (inactive) | > 100 µM (inactive) | 43 µM (inactive) | 43.5 µM (inactive) | 7.66 | 33.2 µM (inactive) | 26.4 µM (inactive) | 47.5 µM (inactive) | 33.9 µM (inactive) | 19.1 µM (inactive) | 13 µM (inactive) | 48.6 µM (inactive) | 21.1 µM (inactive) | 21.6 µM (inactive) | 67.6 µM (inactive) | 35.4 µM (inactive) | 5.14 µM (inactive) | 21.4 µM (inactive) | 48.2 µM (inactive) |
| COc1cc(C2C3=C(COC3=O)OC(C)(C)Oc3cc4c(cc32)OCO4)cc(OC)c1OC (stereo not given) | 0.293 µM (active) | 0.344 µM (active) | 6.67 µM (inactive) | 0.34 µM (active) | 0.535 µM (active) | 0.372 | 3.58 µM (inactive) | 0.258 µM (active) | 0.415 µM (active) | > 37.8 µM (inactive) | 0.365 µM (active) | 0.278 µM (active) | 3.3 µM (inactive) | 0.444 µM (active) | 0.476 µM (active) | 0.466 µM (active) | 0.245 µM (active) | 0.195 µM (active) | 0.35 µM (active) | 0.426 µM (active) |
| O=C(NNCc1ccco1)c1cc2ccccc2[nH]1 | > 51.5 µM (inactive) | > 100 µM (inactive) | > 52.2 µM (inactive) | > 100 µM (inactive) | > 36.9 µM (inactive) | > 87.5 | 48 µM (inactive) | > 86.9 µM (inactive) | 0.133 µM (active) | > 100 µM (inactive) | > 71.4 µM (inactive) | 34.3 µM (inactive) | > 39.1 µM (inactive) | > 100 µM (inactive) | > 56 µM (inactive) | > 61 µM (inactive) | > 80.2 µM (inactive) | > 78.9 µM (inactive) | > 100 µM (inactive) | > 74.6 µM (inactive) |
| COc1ccc2nc3ccc(OC)cc3c(SCCCl)c2c1 | 6.24 µM (inactive) | 39.2 µM (inactive) | 51.4 µM (inactive) | 21 µM (inactive) | > 45.8 µM (inactive) | 12.7 | 21.6 µM (inactive) | 8.28 µM (inactive) | 2 µM (inactive) | 9.57 µM (inactive) | 33.9 µM (inactive) | 3.03 µM (inactive) | 12.7 µM (inactive) | 2.95 µM (inactive) | > 74 µM (inactive) | 12.2 µM (inactive) | 32.4 µM (inactive) | 4.8 µM (inactive) | 19.5 µM (inactive) | 32 µM (inactive) |
| Nc1ccc2nc3ccc(N)cc3[n+](-c3ccccc3)c2c1 | 95.7 µM (inactive) | 45.4 µM (inactive) | 92.7 µM (inactive) | 68.2 µM (inactive) | > 100 µM (inactive) | > 100 | 67 µM (inactive) | 21.2 µM (inactive) | 5.07 µM (inactive) | 18.6 µM (inactive) | 32.8 µM (inactive) | 11.6 µM (inactive) | > 100 µM (inactive) | > 100 µM (inactive) | > 100 µM (inactive) | 25.4 µM (inactive) | 40.4 µM (inactive) | 98.6 µM (inactive) | 64.7 µM (inactive) | > 100 µM (inactive) |
| O=C1C=C(Nc2ccccc2C(=O)CC(=O)C(=O)Nc2cccc(C(F)(F)F)c2)c2ccccc2C1=O | 25.8 µM (inactive) | 46.5 µM (inactive) | 8.93 µM (inactive) | 78 µM (inactive) | > 41.8 µM (inactive) | 19.5 | 31.4 µM (inactive) | 57.4 µM (inactive) | 15.2 µM (inactive) | 15.1 µM (inactive) | 27.7 µM (inactive) | 23.1 µM (inactive) | 17.9 µM (inactive) | 17.6 µM (inactive) | 61.4 µM (inactive) | 17.1 µM (inactive) | 54.3 µM (inactive) | 8.85 µM (inactive) | 15.8 µM (inactive) | 31.2 µM (inactive) |
| CCOC(=O)c1c(Br)c(-c2ccc([N+](=O)[O-])cc2)c(Br)n1C | > 10 µM (inactive) | > 10 µM (inactive) | > 10 µM (inactive) | > 10 µM (inactive) | > 10 µM (inactive) | > 10 | 2.47 µM (inactive) | > 10 µM (inactive) | > 10 µM (inactive) | > 10 µM (inactive) | > 10 µM (inactive) | > 10 µM (inactive) | > 10 µM (inactive) | > 10 µM (inactive) | > 10 µM (inactive) | 9.06 µM (inactive) | > 10 µM (inactive) | > 10 µM (inactive) | 7.28 µM (inactive) | 9.16 µM (inactive) |
